From patent publication US8003823B2, “Halo active aromatic sulfonamide organic compounds and odor control uses therefor” (priority 2002, dated 2011) come the findings set out here.

A short description of data set [1]: Odor control spray test, six person human panel: onion odor. Particulars: 2 g chopped white onion, 3 g of 1% w/w solution with 0.3% Avenal S-74, pH 8.0-9.0, sprayed, 20° C. Set-up: key: E=Excellent, immediate removal of odor, no remaining odor.; G=Good, Immediate (within seconds) reduction of odor, very slight but detectable trace odor remains.; F=Fair, Immediate (within seconds) reduction, more pronounced odor remains.; P=Detectable reduction in odor but rate of reduction is slow and a much more pronounced odor remains. As for the experimental part:
(§1) For purposes of conducting the test in accordance with the below listed Examples a series of odorous test reagents were prepared. The utilized odorous test reagents are in accordance with the following:
2 g samples of chopped white onion (Approximately ⅛″ cubes) were prepared and used for each test.
(§2) Unless otherwise specified separate 1% w/w solutions in water of each halo active aromatic sulfonamide derivative were prepared for use. Each solution also contained 0.3% Avenal S-74. The pH of the resulting formulations varied between 8.0 and 9.0.
(§3) The testing protocol for Examples 1 thru 12 involved is as follows: The defined odorous reagents were added to a beaker, watch glass, or petri dish. For each aromatic sulfonamide derivative, 3 grams of the formulated odor control solution defined above were sprayed with a trigger sprayer, separately onto each odor (onion, garlic, fox urine, rotten egg. Odor evaluations were then made by a six person human panel.
(§4) The evaluation criteria utilized is as follows;
(§5) All test evaluations were made at 20° C.

Data set [2] in a line: Odor control spray test, six person human panel: garlic odor (DMSO). More on the design: key: E=Excellent, immediate removal of odor, no remaining odor.; G=Good, Immediate (within seconds) reduction of odor, very slight but detectable trace odor remains.; F=Fair, Immediate (within seconds) reduction, more pronounced odor remains.; P=Detectable reduction in odor but rate of reduction is slow and a much more pronounced odor remains. Particulars: 1 g DMSO, 3 g of 1% w/w solution with 0.3% Avenal S-74, pH 8.0-9.0, sprayed, 20° C. As for the experimental part: as §1
DMSO (dimethyl sulfoxide) 1 g was used for each test.
as §2, §3, §4, §5

Data set [3] can be described thus: Odor control spray test, six person human panel: fox urine odor. Set-up: key: E=Excellent, immediate removal of odor, no remaining odor.; G=Good, Immediate (within seconds) reduction of odor, very slight but detectable trace odor remains.; F=Fair, Immediate (within seconds) reduction, more pronounced odor remains.; P=Detectable reduction in odor but rate of reduction is slow and a much more pronounced odor remains. Particulars: 0.5 g red fox urine, 3 g of 1% w/w solution with 0.3% Avenal S-74, pH 8.0-9.0, sprayed, 20° C. As for the experimental part: as §1
0.5 g of deer hunter's grade red fox urine was used for each test.
as §2, §3, §4, §5

A short description of data set [4]: Odor control spray test, six person human panel: rotten egg odor (sodium sulfide + acetic acid). Particulars: 0.1 g 5% sodium sulfide solution + 2 drops glacial acetic acid, 3 g of 1% w/w solution with 0.3% Avenal S-74, pH 8.0-9.0, sprayed, 20° C. More on the design: key: E=Excellent, immediate removal of odor, no remaining odor.; G=Good, Immediate (within seconds) reduction of odor, very slight but detectable trace odor remains.; F=Fair, Immediate (within seconds) reduction, more pronounced odor remains.; P=Detectable reduction in odor but rate of reduction is slow and a much more pronounced odor remains. As for the experimental part: as §1
0.1 g of a 5% sodium sulfide solution was added to a beaker and 2 drops of glacial acetic acid was added to prepare the rotten egg scent and used for each test.
as §2, §3, §4, §5

Data set [5] is described as follows: Stability of sulfonamide in base formulation at various pHs and alcohols. In kind it is physicochemical. The protocol: In order to evaluate the stability of various sulfonamide compounds for use in odor control, the stability of N-chloro-4carboxybenzenesulfonamide disodium salt was evaluated at various pHs. A base sulfonamide formulation was prepared in accordance with the following formulation: […]
The pH of 20 ml sample of the base formulation is 8.7. The temperature of the sample was raised to 50° C. and the sample was allowed to stand for 30 days.
21. The test protocol of Example 20 was repeated except that the pH of the sample was adjusted to 6.0, with 1N sulfuric acid and the sample was allowed to stand for 1 day. At the end of this period 0%, of the N-chloro-4-carboxybenzenesulfonamide disodium salt remained.
22. The test procedure of Example 20 was repeated, wherein the pH of the sample was adjusted to 6.0 with 1N sulfuric acid and the t-Butanol was replaced with ethanol. The solution was allowed to stand 1 day at which time 0% of the sulfonamide compound remained.
23. The test procedure of Example 20 was repeated where the pH of the sample was 8.7 and the t-butanol was replaced with ethanol. The sample was allowed to stand for 7 days. At the end of this period 0%, the N-chloro-4-carboxybenzenesulfonamide disodium salt remained.
24. The test procedure of Example 20 was repeated, wherein the pH of the sample was adjusted to 10.3 with 1N sodium hydroxide and the t-Butanol was replaced with ethanol. The solution was allowed to stand 30 days at which time 70% of the sulfonamide compound remained.
25. The test procedure of Example 20 was repeated, wherein the pH of the sample was adjusted to 6.0 with 1N sulfuric acid and the t-Butanol was replaced with isopropanol. The solution was allowed to stand 1 day at which time 0% of the sulfonamide compound remained.
26. The test procedure of Example 20 was repeated where the pH of the sample was 8.7 and the t-butanol was replaced with isopropanol. The sample was allowed to stand for 7 days. At the end of this period 50%, the N-chloro-4-carboxybenzenesulfonamide disodium salt remained.
27. The test procedure of Example 20 was repeated, wherein the pH of the sample was adjusted to 10.3 with 1N sodium hydroxide and the t-Butanol was replaced with isopropanol. The solution was allowed to stand 30 days at which time 90% of the sulfonamide compound remained.

Consider `O=[N+]([O-])c1ccc(S(=O)(=O)[N-]Cl)cc1.[Na+]` [Example 11], for which the Onion odor evaluation result in data set [1] is “G”. For the same compound, the Garlic odor evaluation result in data set [2] is “F”. Besides, in data set [3], the “Fox Urine odor evaluation” value is reported as “E”. Moreover, the “Rotten Egg odor evaluation” value in data set [4] is “F”.
`O=C([O-])c1ccc(S(=O)(=O)[N-]Cl)cc1.[Na+].[Na+]` [Example 12]: the Onion odor evaluation entry in data set [1] is “E”. In data set [2], the Garlic odor evaluation entry is recorded as “F”. The “Fox Urine odor evaluation” value in data set [3] is listed as “E”. The “Rotten Egg odor evaluation” value in data set [4] is reported as “E”.
For “N-chloro-4-carboxybenzenesulfonamide disodium salt”, the sulfonamide compound remained in data set [5] (base formulation with t-Butanol, pH 8.7, 50° C., 30 days) is given as 99.5%; in data set [5] (t-Butanol replaced with ethanol, pH 6.0, 50° C., 1 day), 0%; in data set [5] (t-Butanol replaced with ethanol, pH 10.3 with 1N sodium hydroxide, 50° C., 30 days), 70%; in data set [5] (t-Butanol replaced with isopropanol, pH 6.0, 50° C., 1 day), 0%; in data set [5] (t-Butanol replaced with isopropanol, pH 10.3 with 1N sodium hydroxide, 50° C., 30 days), 90%; in data set [5] (t-Butanol, pH adjusted to 6.0 with 1N sulfuric acid, 50° C., 1 day) it was 0%. The sulfonamide compound remained in data set [5] (t-butanol replaced with ethanol, pH 8.7, 50° C., 7 days) was 0%; in data set [5] (t-butanol replaced with isopropanol, pH 8.7, 50° C., 7 days) it was 50%.
